In patent publication US7084122B2, “Use of glycosides of mono- and diacyglycerol as anti-inflammatory agents” (priority 2001, dated 2006):
Where two headings read alike, the source gives them in different places.

Key:
Format in all cases: cell-based
[1] = test system: human peripheral blood polymorphonuclear leukocytes; assay: Chemotaxis assay, modified Boyden chamber, towards zymosan activated serum (ZAS)
Method: (§1) Polymorphonuclear leukocytes (PMNS) were isolated from the peripheral blood of healthy individuals in citrated glass. The cells were separated by dextran density gradient and lymphoprep separation. The purity of PMNs was greater than 98% and the cell viability as determined by trypan blue dye exclusion was greater than 98%.
Chemotaxis assay was performed using a modified Boyden chamber technique as described in Jensen, P. and Kharazmi, A., Computer-assisted image analysis assay of human neutrophil chemotaxis in vitro. J. Immunol. Methods, 144, 43–48. 1991. The purified PMNs were pre-incubated with different dilutions of the extracted galactolipid for 30 min at 37° C. Following preincubation, the chemotaxis of the cells towards the chemotactic factor zymosan activated serum (ZAS), which contains the biologically active chemoattractant C5a, were tested. The migrated cells were counted by a computer-assisted image analysis system.

[2] = test system: human peripheral blood polymorphonuclear leukocytes; assay: Chemiluminescence assay (oxidative burst response), stimulated with opsonized zymosan; conditions: for Chemiluminescence, Millivolts: DMSO control 664
Method: as §1
Chemiluminescence assay was used as a measure of oxygen radical generation by activated PMNs. The method was performed as described in Kharazmi, A., Høiby, N., Doring, G., and Valerius, N. H. Pseudomonas aeruginosa exoproteases inhibit human neutrophil chemiluminescence. Infect. Immun. 44, 587, 1984. PMNs were pre-incubated with different concentrations of the extracted galactolipid and then stimulated with opsonized zymosan. The oxidative burst response of the activated cells was measured by a luminometer (1250-LKB Wallace).

[3] = test system: polymorphonuclear leukocytes; assay: Cell viability by trypan blue dye exclusion; conditions: for Percent viability: DMSO control 100
Method: as §1
Table 6. […] Cell viability was determined by a trypan blue dye exclusion method. The cells were incubated with trypan blue. The dead cells will take up dye and appear blue under the microscope. The results are show as percent viable cells.

## CC/C=C\C/C=C\C/C=C\CCCCCCCC(=O)OCC(CO[C@@H]1O[C@H](CO)[C@H](O)[C@H](O)[C@H]1O)OC(=O)CCCCCCC/C=C\C/C=C\C/C=C\CC (stereo partly drawn) [GOPO, 3-β-D-galactopyranosyloxy-2-(octadeca-9Z,12Z,15Z-trienoyloxy)propanyl octadeca-9Z,12Z,15Z-trienoate]
[1]; GOPO 0.1 μg/ml, new batch (Table 4), DMSO control 42
  Cells migrated: 39
[1]; GOPO 1 μg/ml, new batch (Table 4), DMSO control 42
  Cells migrated: 15
[1]; GOPO 10 μg/ml, new batch (Table 4), DMSO control 42
  Cells migrated: 16
[1]; GOPO 50 μg/ml, first batch (Table 3), DMSO control 59
  Cells migrated: 5
[1]; GOPO 100 μg/ml, first batch (Table 3), DMSO control 59
  Cells migrated: 8
[1]; GOPO 100 μg/ml, new batch (Table 4), DMSO control 42
  Cells migrated: 12
[1]; Homo sapiens, Leukocyte, GOPO 0.1 μg/ml, new batch (Table 4), read-out: Percent inhibition
  inhibition at 0.1 µg/mL: 7%
[1]; Homo sapiens, Leukocyte, GOPO 1 μg/ml, new batch (Table 4), read-out: Percent inhibition
  inhibition at 1 µg/mL: 64%
[1]; Homo sapiens, Leukocyte, GOPO 10 μg/ml, new batch (Table 4), read-out: Percent inhibition
  inhibition at 10 µg/mL: 62%
[1]; Homo sapiens, Leukocyte, GOPO 50 μg/ml, first batch (Table 3), read-out: Percent inhibition
  inhibition at 50 µg/mL: 92%
[1]; Homo sapiens, Leukocyte, GOPO 100 μg/ml, first batch (Table 3), read-out: Percent inhibition
  inhibition at 100 µg/mL: 86%
[1]; Homo sapiens, Leukocyte, GOPO 100 μg/ml, new batch (Table 4), read-out: Percent inhibition
  inhibition at 100 µg/mL: 71%
[1]; at fairly low concentrations
  Migration of human peripheral blood leukocytes towards zymosan-activated serum (result in words): inhibited
[2]; GOPO 50 μg/ml
  Chemiluminescence, Millivolts: 520 Millivolts
[2]; GOPO 100 μg/ml
  Chemiluminescence, Millivolts: 339 Millivolts
[2]; at fairly low concentrations
  Chemiluminescence of human peripheral blood leukocytes (result in words): inhibited
[3]; GOPO 50 μg/ml
  Percent viability: 100%
[3]; GOPO 100 μg/ml
  Percent viability: 99%
[3]; at the tested concentrations
  Toxicity to the cells (result in words): does not appear to be toxic
